Measured values as given in patent US5602153A, “Method of using 1-arylheteroarylalkyl substituted-1H-1,2,4-triazole compounds for treatment of a giaucoma disorder” (G.D. Searle & Co., priority 1993, dated 1997).
Where two headings read alike, the source gives them in different places.

Legend:
[1] = molecular target: T1, rabbit aortic rings (Oryctolagus cuniculus, UniProt P34976); assay: Assay B: In Vitro Vascular Smooth Muscle-Response for AII (antagonist activity in rabbit aortic rings); format: cell-based, rabbit (male New Zealand white); conditions: antagonist 10^-5 M for 5 min, AII challenge
T1 construct: The thoracic aorta was removed, cleaned of adherent fat and connective tissue; from tissue; host or cells: thoracic aorta rings, endothelium removed, male New Zealand white rabbit
T1 sequence (P34976 1-359): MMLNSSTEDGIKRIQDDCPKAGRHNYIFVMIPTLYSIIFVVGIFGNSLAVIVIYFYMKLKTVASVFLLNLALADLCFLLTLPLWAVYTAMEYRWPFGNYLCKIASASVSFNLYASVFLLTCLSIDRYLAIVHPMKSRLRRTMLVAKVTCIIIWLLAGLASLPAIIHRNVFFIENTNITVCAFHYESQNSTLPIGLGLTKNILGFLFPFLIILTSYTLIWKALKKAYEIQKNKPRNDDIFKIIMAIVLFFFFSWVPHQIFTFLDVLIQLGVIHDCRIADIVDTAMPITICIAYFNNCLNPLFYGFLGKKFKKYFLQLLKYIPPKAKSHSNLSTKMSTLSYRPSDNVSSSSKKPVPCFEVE
Protocol: Assay B: In Vitro Vascular Smooth Muscle-Response for AII The compounds of the invention were tested for antagonist activity in rabbit aortic rings. Male New Zealand white rabbits (2-2.5 kg) were sacrificed using an overdose of pentobarbital and exsanguinated via the carotid arteries. The thoracic aorta was removed, cleaned of adherent fat and connective tissue and then cut into 3-mm ring segments. The endothelium was removed from the rings by gently sliding a rolled-up piece of filter paper into the vessel lumen. The rings were then mounted in a water-jacketed tissue bath, maintained at 37° C., between moveable and fixed ends of a stainless steel wire with the moveable end attached to an FT03 Grass transducer coupled to a Model 7D Grass Polygraph for recording isometric force responses. The bath was filled with 20 ml of oxygenated (95% oxygen/5% carbon dioxide) Krebs solution of the following composition (mM): 130 NaCl, 15 NaHCO3, 15 KCl, 1.2 NaH2 PO4, 1.2 MgSO4, 2.5 CaCl2, and 11.4 glucose. The preparations were equilibrated for one hour before approximately one gram of passive tension was placed on the rings. Angiotensin II concentration-response curves were then recorded (3×10^-10 to 1×10^-5 M). Each concentration of AII was allowed to elicit its maximal contraction, and then AII was washed out repeatedly for 30 minutes before rechallenging with a higher concentration of AII. Aorta rings were exposed to the test antagonist at 10^-5 M for 5 minutes before challenging with AII. Adjacent segments of the same aorta ring were used for all concentration-response curves in the presence or absence of the test antagonist. The effectiveness of the test compound was expressed in terms of pA2 values and were calculated according to H.O. Schild [Br. J. Pharmacol. Chemother., 2, 189-206 (1947)]. The pA2 value is the concentration of the antagonist which increases the EC50 value for AII by a factor of two. Each test antagonist was evaluated in aorta rings from two rabbits.

[2] = test system: pressor response to AII; assay: Assay C: In Vivo Intragastric Pressor Assay Response for AII Antagonists; parameters: species or system rat (male Sprague-Dawley); conditions: po; 3 mg/kg i.g., rat, AII 30 ng/kg bolus
Protocol: Assay C: In Vivo Intragastric Pressor Assay Response for AII Antagonists of the Invention
Male Sprague-Dawley rats weighing 225-300 grams were anesthetized with methohexital (30 mg/kg, i.p.) and catheters were implanted into the femoral artery and vein. The catheters were tunneled subcutaneously to exit dorsally, posterior to the head and between the scapulae. The catheters were filled with heparin (1000 units/ml of saline). The rats were returned to their cage and allowed regular rat chow and water ad libitum. After full recovery from surgery (3-4 days), rats were placed in Lucite holders and the arterial line was connected to a pressure transducer. Arterial pressure was recorded on a Gould polygraph (mmHg). Angiotensin II was administered as a 30 ng/kg bolus via the venous catheter delivered in a 50 μl volume with a 0.2 ml saline flush. The pressor response in mmHg was measured by the difference from pre-injectionarterial pressure to the maximum pressure achieved. The AII injection was repeated every 10 minutes until three consecutive injections yielded responses within 4 mmHg of each other. These three responses were then averaged and represented the control response to AII. The test compound was suspended in 0.5% methylcellulose in water and was administered by gavage. The volume administered was 2 ml/kg body weight. The standard dose was 3 mg/kg. Angiotensin II bolus injections were given at 30, 45, 60, 75, 120, 150, and 180 minutes after gavage. The pressor response to AII was measured at each time point. The rats were then returned to their cage for future testing. A minimum of 3 days was allowed between tests. Percent inhibition was calculated for each time point following gavage by the following formula: [(Control Response-Response at time point)/Control Response]×100.

[3] = first of two rabbits, read-out: pA2 (first value) (converted)
[4] = second of two rabbits, read-out: pA2 (converted)

Compound | Kb [1, 3] [nM] | Kb [1, 4] [nM] | inhibition in vivo at 3 mg/kg [2] [%]
CCCCc1nc(CCCC)n(Cc2ccc(-c3ccccc3-c3nnn[nH]3)cn2)n1 [Example 1, 5-[2-[6-[(3,5-dibutyl-1H-1,2,4-triazol-1-yl)methyl]-3-pyridinyl]phenyl]-1H-tetrazole] | 13.2 | 9.77 | 20
CCCCc1nc(CCCC)n(Cc2ccc(-c3ccccc3-c3nnn[nH]3)nc2)n1 [Example 3, 5-[2-[5-[(3,5-dibutyl-1H-1,2,4-triazol-1-yl)methyl]-2-pyridinyl]phenyl]-1H-tetrazole] | 2.69 | 5.75 | 40
